Measurements reported in patent publication US10072011B2, “Substituted bridged urea analogs as sirtuin modulators” (GlaxoSmithKline Intellectual Property (No.2) Limited, priority 2014, dated 2018).
Where two headings read alike, the source gives them in different places.

Target: T1, SIRT1 (Homo sapiens, UniProt Q96EB6)
T1 sequence (Q96EB6 1-747): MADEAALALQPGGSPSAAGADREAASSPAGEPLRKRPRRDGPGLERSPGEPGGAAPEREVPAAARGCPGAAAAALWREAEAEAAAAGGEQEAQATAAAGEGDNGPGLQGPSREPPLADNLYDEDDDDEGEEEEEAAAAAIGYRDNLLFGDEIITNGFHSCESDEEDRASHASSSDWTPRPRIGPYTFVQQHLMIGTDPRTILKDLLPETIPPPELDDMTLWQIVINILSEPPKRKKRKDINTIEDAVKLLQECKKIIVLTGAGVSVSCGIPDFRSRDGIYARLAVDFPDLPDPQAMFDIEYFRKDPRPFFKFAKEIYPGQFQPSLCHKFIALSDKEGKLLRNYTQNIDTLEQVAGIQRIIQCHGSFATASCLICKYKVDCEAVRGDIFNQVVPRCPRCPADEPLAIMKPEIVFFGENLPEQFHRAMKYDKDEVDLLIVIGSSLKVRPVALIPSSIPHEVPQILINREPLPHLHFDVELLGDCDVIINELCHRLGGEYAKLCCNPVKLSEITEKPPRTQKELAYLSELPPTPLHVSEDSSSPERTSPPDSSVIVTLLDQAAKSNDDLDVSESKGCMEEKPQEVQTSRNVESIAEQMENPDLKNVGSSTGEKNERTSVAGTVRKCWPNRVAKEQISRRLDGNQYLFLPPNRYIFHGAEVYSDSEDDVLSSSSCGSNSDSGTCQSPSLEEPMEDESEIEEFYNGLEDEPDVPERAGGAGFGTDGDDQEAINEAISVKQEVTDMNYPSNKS
Assay: Trp mass spectrometry assay of SIRT1 activation (Ac-R-H-K-K(Ac)-W-NH2 peptide)
Assay type: biochemical
Details: for Emax: 25 min, read-out: TRP MAX RESP (percent maximum fold activation)
Outline: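 N-terminal His-tagged human SIRT1, expressed in BL21(DE3) and purified, was incubated 25 min with an acetylated Trp peptide and NAD plus test compound at varying concentrations, then quenched with formic acid. OAADPR or deacetylated peptide was quantified by mass spectrometry versus compound-free control; EC1.5 is the concentration giving 50% activity increase, with percent maximum activation.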

[1] = Trp peptide 0.5 μM, 120 μM βNAD+, 10 nM SIRT1, 25 min at 25° C., relative to control (100%)
[2] = Trp peptide 0.5 μM, 120 μM βNAD+, 10 nM SIRT1, 25 min at 25° C.

In the case of `Cc1nc(NC(=O)N2c3nc(C(=O)NCC4CC4)ccc3N3CC[C@H]2C3)ccc1F` [Example 112, (4S)—N7-(cyclopropylmethyl)-N5-(5-fluoro-6-methylpyridin-2-yl)-3,4-dihydro-1,4-methanopyrido[2,3-b][1,4]diazepine-5,7(2H)-dicarboxamide], the Emax [1] is reported as > 150% and the “TRP Activity (EC1.5, concentration of test compound that results in 150% activation of SIRT1)” value [2] is reported as “A (EC1.5<1 μM)”.

In the case of `COc1cc(NC(=O)N2c3nc(C(=O)NCC4CC4)ccc3N3CC[C@H]2C3)ncn1` [Example 113, (4S)—N7-(cyclopropylmethyl)-N5-(6-methoxypyrimidin-4-yl)-3,4-dihydro-1,4-methanopyrido[2,3-b][1,4]diazepine-5,7(2H)-dicarboxamide], the Emax [1] is reported as > 150% and the “TRP Activity (EC1.5, concentration of test compound that results in 150% activation of SIRT1)” value [2] is reported as “B (EC1.5 1-25 μM)”.

`Cc1ncc(-c2ccnc(NC(=O)N3c4nc(C(=O)NCC5CC5)ccc4N4CC[C@H]3C4)c2)o1` [Example 114, (4S)—N7-(cyclopropylmethyl)-N5-(4-(2-methyloxazol-5-yl)pyridin-2-yl)-3,4-dihydro-1,4-methanopyrido[2,3-b][1,4]diazepine-5,7(2H)-dicarboxamide] was tested, and the Emax [1] was > 150% and the “TRP Activity (EC1.5, concentration of test compound that results in 150% activation of SIRT1)” value [2] was “B (EC1.5 1-25 μM)”.

For `Cc1ncc(-c2ccnc(NC(=O)N3c4nc(C(=O)NCC(F)(F)F)ccc4N4CC[C@H]3C4)c2)o1` [Example 115, (4S)—N5-(4-(2-methyloxazol-5-yl)pyridin-2-yl)-N7-(2,2,2-trifluoroethyl)-3,4-dihydro-1,4-methanopyrido[2,3-b][1,4]diazepine-5,7(2H)-dicarboxamide], the Emax [1] was > 150% and the “TRP Activity (EC1.5, concentration of test compound that results in 150% activation of SIRT1)” value [2] was “A (EC1.5<1 μM)”.

For `O=C(NCC(F)F)c1ccc2c(n1)N(C(=O)Nc1ccccn1)[C@H]1CCN2C1` [Example 116, (4S)—N7-(2,2-difluoroethyl)-N5-(pyridin-2-yl)-3,4-dihydro-1,4-methanopyrido[2,3-b][1,4]diazepine-5,7(2H)-dicarboxamide], the Emax was > 150% and the “TRP Activity (EC1.5, concentration of test compound that results in 150% activation of SIRT1)” value [2] was “A (EC1.5<1 μM)”.

With `O=C(NCC(F)(F)CO)c1ccc2c(n1)N(C(=O)Nc1ccccn1)[C@H]1CCN2C1` [Example 117, (4S)—N7-(2,2-difluoro-3-hydroxypropyl)-N5-(pyridin-2-yl)-3,4-dihydro-1,4-methanopyrido[2,3-b][1,4]diazepine-5,7(2H)-dicarboxamide] the Emax [1] was > 150% and the “TRP Activity (EC1.5, concentration of test compound that results in 150% activation of SIRT1)” value [2] was “A (EC1.5<1 μM)”.

In the case of `O=C(NCC(F)(F)F)c1ccc2c(n1)N(C(=O)Nc1cnc(OC[C@@H](O)CO)cn1)[C@H]1CCN2C1` [Example 118, (4S)—N5-(5-((S)-2,3-dihydroxypropoxy)pyrazin-2-yl)-N7-(2,2,2-trifluoroethyl)-3,4-dihydro-1,4-methanopyrido[2,3-b][1,4]diazepine-5,7(2H)-dicarboxamide], the Emax [1] is reported as > 150% and the “TRP Activity (EC1.5, concentration of test compound that results in 150% activation of SIRT1)” value [2] is reported as “B (EC1.5 1-25 μM)”.

`Cn1cnc(NC(=O)N2c3nc(C(=O)NCC(F)(F)F)ccc3N3CC[C@H]2C3)cc1=O` [Example 120, (4S)—N5-(1-methyl-6-oxo-1,6-dihydropyrimidin-4-yl)-N7-(2,2,2-trifluoroethyl)-3,4-dihydro-1,4-methanopyrido[2,3-b][1,4]diazepine-5,7(2H)-dicarboxamide] was tested, and the Emax [1] was > 150% and the “TRP Activity (EC1.5, concentration of test compound that results in 150% activation of SIRT1)” value [2] was “B (EC1.5 1-25 μM)”.

For `Cn1nccc(NC(=O)N2c3nc(C(=O)NCC(F)(F)F)ccc3N3CC[C@H]2C3)c1=O` [Example 121, (4S)—N5-(2-methyl-3-oxo-2,3-dihydropyridazin-4-yl)-N7-(2,2,2-trifluoroethyl)-3,4-dihydro-1,4-methanopyrido[2,3-b][1,4]diazepine-5,7(2H)-dicarboxamide], the Emax was > 150% and the “TRP Activity (EC1.5, concentration of test compound that results in 150% activation of SIRT1)” value [2] was “A (EC1.5<1 μM)”.

In the case of `C[C@@H](NC(=O)c1ccc2c(n1)N(C(=O)Nc1ccnn(C)c1=O)[C@H]1CCN2C1)C(F)(F)F` [Example 122, (4S)—N5-(2-methyl-3-oxo-2,3-dihydropyridazin-4-yl)-N7-((R)-1,1,1-trifluoropropan-2-yl)-3,4-dihydro-1,4-methanopyrido[2,3-b][1,4]diazepine-5,7(2H)-dicarboxamide], the Emax [1] is reported as > 150% and the “TRP Activity (EC1.5, concentration of test compound that results in 150% activation of SIRT1)” value [2] is reported as “A (EC1.5<1 μM)”.

With `Cc1ncc(-c2ccnc(NC(=O)N3c4nc(C(=O)NC5CC5)ccc4N4CC[C@H]3C4)c2)o1` [Example 123, (4S)—N7-cyclopropyl-N5-(4-(2-methyloxazol-5-yl)pyridin-2-yl)-3,4-dihydro-1,4-methanopyrido[2,3-b][1,4]diazepine-5,7(2H)-dicarboxamide] the Emax [1] was > 150% and the “TRP Activity (EC1.5, concentration of test compound that results in 150% activation of SIRT1)” value [2] was “B (EC1.5 1-25 μM)”.

With `O=C(NCCC(F)(F)F)c1ccc2c(n1)N(C(=O)Nc1ccccn1)[C@H]1CCN2C1` [Example 124, (4S)—N5-(pyridin-2-yl)-N7-(3,3,3-trifluoropropyl)-3,4-dihydro-1,4-methanopyrido[2,3-b][1,4]diazepine-5,7(2H)-dicarboxamide] the Emax [1] was > 150% and the “TRP Activity (EC1.5, concentration of test compound that results in 150% activation of SIRT1)” value [2] was “A (EC1.5<1 μM)”.

For `Cc1ncc(-c2ccnc(NC(=O)N3c4nc(C(=O)N[C@@H](C)C(F)(F)F)ccc4N4CC[C@H]3C4)c2)o1` [Example 126, (4S)—N5-(4-(2-methyloxazol-5-yl)pyridin-2-yl)-N7-((S)-1,1,1-trifluoropropan-2-yl)-3,4-dihydro-1,4-methanopyrido[2,3-b][1,4]diazepine-5,7(2H)-dicarboxamide], the Emax [1] was > 150% and the “TRP Activity (EC1.5, concentration of test compound that results in 150% activation of SIRT1)” value [2] was “B (EC1.5 1-25 μM)”.

In the case of `C[C@H](NC(=O)c1ccc2c(n1)N(C(=O)Nc1cc(-c3cnco3)ccn1)[C@H]1CCN2C1)C(F)(F)F` [Example 127, (4S)—N5-(4-(oxazol-5-yl)pyridin-2-yl)-N7-((S)-1,1,1-trifluoropropan-2-yl)-3,4-dihydro-1,4-methanopyrido[2,3-b][1,4]diazepine-5,7(2H)-dicarboxamide], the Emax [1] is reported as > 150% and the “TRP Activity (EC1.5, concentration of test compound that results in 150% activation of SIRT1)” value [2] is reported as “B (EC1.5 1-25 μM)”.

In the case of `Cc1ncc(-c2ccnc(NC(=O)N3c4nc(C(=O)N[C@H](C)C(F)(F)F)ccc4N4CC[C@H]3C4)c2)o1` [Example 128, (4S)—N5-(4-(2-methyloxazol-5-yl)pyridin-2-yl)-N7-((R)-1,1,1-trifluoropropan-2-yl)-3,4-dihydro-1,4-methanopyrido[2,3-b][1,4]diazepine-5,7(2H)-dicarboxamide], the Emax [1] is reported as > 150% and the “TRP Activity (EC1.5, concentration of test compound that results in 150% activation of SIRT1)” value [2] is reported as “A (EC1.5<1 μM)”.

For `C[C@@H](NC(=O)c1ccc2c(n1)N(C(=O)Nc1ccc(F)cn1)[C@H]1CCN2C1)C(F)(F)F` [Example 129, (4S)—N5-(5-fluoropyridin-2-yl)-N7-((R)-1,1,1-trifluoropropan-2-yl)-3,4-dihydro-1,4-methanopyrido[2,3-b][1,4]diazepine-5,7(2H)-dicarboxamide], the Emax [1] was > 150% and the “TRP Activity (EC1.5, concentration of test compound that results in 150% activation of SIRT1)” value [2] was “A (EC1.5<1 μM)”.

With `C[C@@H](NC(=O)c1ccc2c(n1)N(C(=O)Nc1ncccn1)[C@H]1CCN2C1)C(F)(F)F` [Example 130, (4S)—N5-(pyrimidin-2-yl)-N7-((R)-1,1,1-trifluoropropan-2-yl)-3,4-dihydro-1,4-methanopyrido[2,3-b][1,4]diazepine-5,7(2H)-dicarboxamide] the Emax [1] was > 150% and the “TRP Activity (EC1.5, concentration of test compound that results in 150% activation of SIRT1)” value [2] was “A (EC1.5<1 μM)”.
